Consider three compounds from patent US20090163517A1, “BENZOOXAZOLE, OXAZOLOPYRIDINE, BENZOTHIAZOLE AND THIAZOLOPYRIDINE DERIVATIVES” (priority 2005, published 2009).

Structures are written as SMILES.

T1 sequence (P35346 whole entry): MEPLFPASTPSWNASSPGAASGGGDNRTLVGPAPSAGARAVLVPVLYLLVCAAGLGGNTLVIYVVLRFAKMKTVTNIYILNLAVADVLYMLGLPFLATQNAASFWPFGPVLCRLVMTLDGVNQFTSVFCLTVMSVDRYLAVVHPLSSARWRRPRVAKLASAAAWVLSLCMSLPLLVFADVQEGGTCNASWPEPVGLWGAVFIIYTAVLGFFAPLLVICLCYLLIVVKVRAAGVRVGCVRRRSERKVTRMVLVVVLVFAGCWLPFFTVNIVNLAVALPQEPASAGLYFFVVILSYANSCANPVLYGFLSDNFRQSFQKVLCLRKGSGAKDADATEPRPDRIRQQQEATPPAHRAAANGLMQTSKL

This assay concerns the target T1, human subtype 5 somatostatin receptor (Homo sapiens, UniProt P35346).
T1 construct: host or cells: CHO cell line, stably transfected; membranes prepared by sonication and centrifugation
Briefly: SSTR5 radioligand binding on membranes of CHO cells expressing the human receptor (125I-labeled 11-Tyr somatostatin-14 tracer). As to conditions: Ki calculated from IC50 by the Cheng-Prussoff equation, 0.05 nM 125I tracer, 1 hour at room temperature, read-out: SSTR 5 Ki. The procedure:
A CHO cell line stably transfected with a plasmid encoding the human subtype 5 somatostatin receptor (GenBank accession number D16827) was obtained from Euroscreen. Cells were cultured and used for binding and functional assays.
Membranes of these cells were prepared by sonication in the presence of protease inhibitors and subsequent fractionating centrifugation. The protein concentration in the membrane preparation was determined using a commercial kit (BCA kit, Pierce, USA). Membranes were stored at −80° C. until use. After thawing, membranes were diluted in assay buffer (50 mM TRIS-HCl at pH 7.4, 5 mM MgCl2 and 0.20% BSA (bovine serum albumine)) and subjected to dounce homogenization.
For binding studies, 0.1 mL membrane suspension, corresponding to app. 6×10^−15 mol receptor, was incubated for 1 hour at room temperature with 0.05 nM ^125I-labeled tracer (11-Tyr somatostatin-14, Perkin-Elmer) and either test compounds in varying concentrations or, for the determination of non-specific binding, 0.001 mM non-labeled somatostatin-14 (Sigma-Aldrich, Buchs, Switzerland). The incubation was stopped by filtration through GF/B glassfiber filters (Unifilter, Perkin-Elmer) and washing with ice-cold wash buffer (50 mM Tris-HCl at pH 7.4). The bound radioactivity was measured after application of a scintillation cocktail (Microscint 40, Perkin-Elmer) and expressed as disintegrations per minute (dpm).
The receptor concentration was determined in a prior saturation experiment where a fixed, arbitrary amount of membranes was incubated with a concentration range of radio-labeled tracer. This allows estimating the total number of specific binding sites per amount of protein (i.e., Bmax), typically between 1 and 5 pmol/mg.
The concentration of the test compound required to result in half maximal inhibition of binding of the radio-labeled tracer (IC50) was estimated from a concentration-versus-dpm graph. The binding affinity (Ki) was calculated from the IC50 by applying the Cheng-Prussoff equation for single binding sites.
In the case of `CCOc1cc(CN2CCC(Nc3nc4c(N)cccc4o3)CC2)cc(OCC)c1-n1cccc1` [Example 23, N^2-[1-(3,5-Diethoxy-4-pyrrol-1-yl-benzyl)-piperidin-4-yl]-benzooxazole-2,4-diamine], the Ki was 6 nM.
Then `CCOc1cc(CN2CCC(Nc3nc4ccc(C(=O)O)cc4o3)CC2)cc(OCC)c1N` [Example 71, 2-[1-(4-Amino-3,5-diethoxy-benzyl)-piperidin-4-ylamino]-benzooxazole-6-carboxylic Acid], with 44 nM.
Then `CCOc1cc(CN2CCC(Nc3nc4c([N+](=O)[O-])cccc4o3)CC2)ccc1F` [Example 73, [1-(3-Ethoxy-4-fluoro-benzyl)-piperidin-4-yl]-(4-nitro-benzooxazol-2-yl)-amine], with 223 nM.

Usually Ki stands for the equilibrium dissociation constant of an inhibitor or competing ligand from its target.
